{"source": "PubChem BioAssay AID743399", "about": "(Broad Institute, 2014)", "note": "Inconclusive results are not listed. Active and inactive are the calls of the source.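 Rule for the calls: active = compounds lowering the signal whose fitted AC50 is no more than twice their top tested dose; inconclusive = flat curve with activity from -70 to -30%, or bad fit; inactive = the rest.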", "data": [{"system": "Huh7 psiCHECK-miR122 Renilla luciferase reporter, 48 h", "assay": "miR-122 activators in Huh7 reporter cells, dose response, miR-122 modulator project, cell-based, psiCHECK-miR122, dry powder (AID 743399)", "settings": "not given", "values": [{"compound": "C[C@H]1CN([C@@H](C)CO)S(=O)(=O)c2ccc(C#Cc3ccncc3)cc2O[C@H]1CN(C)C(=O)C1CCOCC1", "AC50": "20.7 µM"}, {"compound": "C[C@@H]1CN([C@H](C)CO)S(=O)(=O)c2ccc(C#Cc3ccncc3)cc2O[C@@H]1CN(C)C(=O)C1CCOCC1", "AC50": "0.896 µM"}, {"compound": "OCc1ccc(-c2nn(Cc3ccccc3)c3ccccc23)o1", "AC50": "0.449 µM"}, {"compound": "CO[C@@H]1CN(C)C(=O)c2cc(NC(=O)c3cccc(Oc4ccccc4)c3)ccc2OC[C@H](C)NC[C@@H]1C", "AC50": "7.62 µM"}, {"compound": "CN1C(=O)c2cc(NC(=O)c3cccc(F)c3)ccc2OC[C@@H]2O[C@@H](CC(=O)O)CC[C@H]21", "AC50": "> 60 µM (inactive)"}, {"compound": "Nc1ccc(Oc2ccc(Cl)cc2)cc1", "AC50": "3.4 µM"}, {"compound": "CCn1cc(C(=O)O)c(=O)c2cc(F)c(N3CCNCC3)nc21", "AC50": "> 70 µM (inactive)"}, {"compound": "Cc1cc(C(C)(C)C)cc(S(=O)(=O)NCCc2ccncc2)c1C", "AC50": "2.34 µM"}, {"compound": "C[C@H]1CN([C@@H](C)CO)S(=O)(=O)c2ccc(C#Cc3ccncc3)cc2O[C@@H]1CN(C)C(=O)C1CCOCC1", "AC50": "9.44 µM"}, {"compound": "COCC(=O)N(C)C[C@H]1Oc2cc(-c3ccccc3F)ccc2S(=O)(=O)N([C@@H](C)CO)C[C@H]1C", "AC50": "0.278 µM"}, {"compound": "CCCC#Cc1ccc2c(c1)O[C@H](CN(C)C(=O)c1ccncc1)[C@H](C)CN([C@@H](C)CO)S2(=O)=O", "AC50": "12.8 µM"}, {"compound": "COCC(=O)N(C)C[C@H]1Oc2cc(C#Cc3cccnc3)ccc2S(=O)(=O)N([C@H](C)CO)C[C@H]1C", "AC50": "< 0.26 µM"}, {"compound": "COCC(=O)N(C)C[C@H]1Oc2cc(C#Cc3cccnc3)ccc2S(=O)(=O)N([C@@H](C)CO)C[C@H]1C", "AC50": "0.354 µM"}, {"compound": "COCC(=O)N(C)C[C@H]1Oc2cc(-c3ccc(C#N)cc3)ccc2S(=O)(=O)N([C@@H](C)CO)C[C@H]1C", "AC50": "0.341 µM"}, {"compound": "C[C@H]1CN([C@@H](C)CO)C(=O)c2cc(C#Cc3ccccc3F)cnc2O[C@H]1CN(C)C(=O)C1CCCCC1", "AC50": "20.6 µM"}, {"compound": "C[C@@H]1CN([C@@H](C)CO)S(=O)(=O)c2ccc(C#Cc3ccncc3)cc2O[C@@H]1CN(C)C(=O)C1CCOCC1", "AC50": "0.838 µM"}, {"compound": "COc1ccc(S(=O)(=O)N(C)C[C@@H]2Oc3ncc(/C=C/c4ccccc4)cc3C(=O)N([C@@H](C)CO)C[C@@H]2C)cc1", "AC50": "22.1 µM"}, {"compound": "Cc1cccc(NC(=O)Nc2ccc3c(c2)C(=O)N(C)[C@@H]2CC[C@H](CC(=O)NCc4ccccc4Cl)O[C@H]2CO3)c1", "AC50": "22.2 µM"}, {"compound": "COCC(=O)N(C)C[C@H]1Oc2cc(-c3ccccc3F)ccc2S(=O)(=O)N([C@H](C)CO)C[C@H]1C", "AC50": "< 0.26 µM"}, {"compound": "C[C@H]1CN([C@@H](C)CO)C(=O)c2cc(-c3ccc(C#N)cc3)cnc2O[C@H]1CN(C)C(=O)Nc1ccc(C(F)(F)F)cc1", "AC50": "6.96 µM"}, {"compound": "CCCC#Cc1ccc2c(c1)O[C@H](CN(C)C(=O)COC)[C@H](C)CN([C@@H](C)CO)S2(=O)=O", "AC50": "1.1 µM"}, {"compound": "C[C@@H]1CN([C@H](C)CO)S(=O)(=O)c2ccc(C#Cc3ccncc3)cc2O[C@H]1CN(C)C(=O)C1CCOCC1", "AC50": "0.496 µM"}, {"compound": "Nc1ccc(Oc2ccc(Br)cc2)cc1", "AC50": "1.09 µM"}, {"compound": "COCC(=O)N(C)C[C@H]1Oc2cc(-c3ccc(C#N)cc3)ccc2S(=O)(=O)N([C@H](C)CO)C[C@H]1C", "AC50": "0.324 µM"}, {"compound": "C[C@H](CO)N1C[C@H](C)[C@@H](CN(C)C(=O)C2CCOCC2)Oc2cc(C#Cc3ccncc3)ccc2S1(=O)=O", "AC50": "5.46 µM"}, {"compound": "CNC[C@@H]1Oc2cc(C#CC3CCCCC3)ccc2S(=O)(=O)N([C@@H](C)CO)C[C@@H]1C", "AC50": "14.4 µM"}, {"compound": "COc1cccc(-c2ccc3c(c2)O[C@H](CN(C)C(=O)C2CCOCC2)[C@H](C)CN([C@@H](C)CO)S3(=O)=O)c1", "AC50": "4.07 µM"}, {"compound": "O=C(CNCCC1=CCCCC1)Nc1ccccc1N1CCCCCC1", "AC50": "16.3 µM"}, {"compound": "CN(C)CCN1C(=O)c2cccc3cc(N)cc(c23)C1=O", "AC50": "10.7 µM"}, {"compound": "C[C@@H]1CN([C@H](C)CO)S(=O)(=O)c2ccc(/C=C/c3ccccc3)cc2O[C@@H]1CN(C)C(=O)c1cccnc1", "AC50": "7.29 µM"}, {"compound": "O=C(c1ccc(CNc2c(NC3CCCCC3)c(=O)c2=O)cc1)N1CCc2ccccc21", "AC50": "1.18 µM"}]}, {"system": "not listed separately", "assay": "miR-122 activators in Huh7 reporter cells, dose response, miR-122 modulator project, cell-based, psiCHECK-miR122, dry powder (AID 743399)", "settings": "Huh7 psiCHECK-miR122 Renilla luciferase reporter, 48 h; at 35 µM (top of the series)", "values": [{"compound": "C/C=C/c1cnc2c(c1)C(=O)N([C@@H](C)CO)C[C@H](C)[C@H](CN(C)S(=O)(=O)c1ccc(OC)cc1)O2", "activity change, negative = miR122 activation": "26.1% (inactive)"}, {"compound": "CN1C(=O)c2cc(NC(=O)c3cccc(F)c3)ccc2OC[C@H]2O[C@@H](CC(=O)O)CC[C@@H]21", "activity change, negative = miR122 activation": "20.2% (inactive)"}, {"compound": "O=S(=O)(NCCc1ccncc1)c1ccccc1", "activity change, negative = miR122 activation": "515% (inactive)"}, {"compound": "O=C(CN=C1NS(=O)(=O)c2ccccc21)Nc1ccccc1N1CCCCCC1", "activity change, negative = miR122 activation": "-23.1% (inactive)"}, {"compound": "CN1C(=O)c2cc(NC(=O)c3cccc(F)c3)ccc2OC[C@H]2O[C@@H](CC(=O)O)CC[C@H]21", "activity change, negative = miR122 activation": "52.2% (inactive)"}, {"compound": "CO[C@@H]1CN(C)C(=O)c2cc(NS(=O)(=O)c3ccc(Oc4ccccc4)cc3)ccc2OC[C@H](C)NC[C@@H]1C", "activity change, negative = miR122 activation": "8.7% (inactive)"}, {"compound": "CCOC(=O)N1CCC(NC(=O)c2ccc3c(c2)sc2nc(-c4ccccc4)cn23)CC1", "activity change, negative = miR122 activation": "-23.1% (inactive)"}, {"compound": "CN1C(=O)c2cc(NC(=O)c3cccc(F)c3)ccc2OC[C@H]2O[C@H](CC(=O)O)CC[C@H]21", "activity change, negative = miR122 activation": "-17.4% (inactive)"}, {"compound": "CN1C(=O)c2cc(NC(=O)c3cccc(F)c3)ccc2OC[C@@H]2O[C@@H](CC(=O)O)CC[C@@H]21", "activity change, negative = miR122 activation": "-10.9% (inactive)"}, {"compound": "C[C@H]1CN([C@@H](C)CO)C(=O)c2cc(-c3ccc(C#N)cc3)cnc2O[C@H]1CN(C)Cc1cncnc1", "activity change, negative = miR122 activation": "-10.9% (inactive)"}, {"compound": "CN1C(=O)c2cc(NC(=O)c3cccc(F)c3)ccc2OC[C@H]2O[C@H](CC(=O)O)CC[C@@H]21", "activity change, negative = miR122 activation": "-21.7% (inactive)"}, {"compound": "COCC(=O)N(C)C[C@@H]1Oc2ncc(-c3ccc(C#N)cc3)cc2C(=O)N([C@@H](C)CO)C[C@@H]1C", "activity change, negative = miR122 activation": "-4.35% (inactive)"}, {"compound": "Cn1c(=O)c(=O)n(C)c2cc(S(=O)(=O)N3CCOCC3)ccc21", "activity change, negative = miR122 activation": "0% (inactive)"}, {"compound": "COc1cccc(C(=O)Nc2ccc3c(c2)C(=O)N(C)C[C@@H](OC)[C@@H](C)CN[C@@H](C)CO3)c1", "activity change, negative = miR122 activation": "4.35% (inactive)"}, {"compound": "CCOC(=O)N1CCC(NC(=O)c2ccc3nc(N4CCC(C)CC4)sc3c2)CC1", "activity change, negative = miR122 activation": "53.8% (inactive)"}, {"compound": "O=C(NCc1ccccc1Cl)c1ccc(CNc2c(NC3CCCCC3)c(=O)c2=O)cc1", "activity change, negative = miR122 activation": "-30.8% (inactive)"}, {"compound": "O=C(Nc1ccc(-c2nc3ccccc3o2)cc1)c1cc(-n2cnnc2)ccc1Cl", "activity change, negative = miR122 activation": "0% (inactive)"}, {"compound": "CN1C(=O)c2cc(NC(=O)c3cccc(F)c3)ccc2OC[C@@H]2O[C@H](CC(=O)O)CC[C@@H]21", "activity change, negative = miR122 activation": "-15.2% (inactive)"}, {"compound": "O=C(c1ccc(CN2CCOCC2)cc1)N1CCc2ccccc21", "activity change, negative = miR122 activation": "15.4% (inactive)"}, {"compound": "C[C@H]1CN([C@@H](C)CO)C(=O)c2cc(-c3ccc(C#N)cc3)cnc2O[C@H]1CN(C)C(=O)c1ccccc1", "activity change, negative = miR122 activation": "10.9% (inactive)"}, {"compound": "CN1C(=O)c2cc(NC(=O)c3cccc(F)c3)ccc2OC[C@@H]2O[C@H](CC(=O)O)CC[C@H]21", "activity change, negative = miR122 activation": "-41.3% (inactive)"}, {"compound": "CO[C@@H]1CN(C)C(=O)c2cc(NC(=O)c3ccc4c(c3)OCO4)ccc2OC[C@H](C)NC[C@@H]1C", "activity change, negative = miR122 activation": "-21.7% (inactive)"}, {"compound": "CCCCN(CCCC)C(=O)CN(C)S(=O)(=O)c1ccc2c(c1)n(C)c(=O)c(=O)n2C", "activity change, negative = miR122 activation": "46.2% (inactive)"}, {"compound": "Cc1cc(C(C)(C)C)cc(S(=O)(=O)N2CCOCC2)c1C", "activity change, negative = miR122 activation": "92.3% (inactive)"}]}]}
